Assay results reported in patent publication US20110081316A1, “PYRAZOLE INHIBITORS OF PHOSPHATIDYLINOSITOL 3-KINASE” (VERTEX PHARMACEUTICALS INCORPORATED, priority 2009, published 2011).

Target: PI3K-gamma (Homo sapiens, UniProt P48736)
Experiment: PI3K Inhibition Assay (33P-ATP, PI(4,5)P2 substrate, filter plate scintillation counting)
Assay type: biochemical
Details: 2 nM enzyme, 3 μM ATP, 30 μM PI(4,5)P2, 30 min at 25° C.; competitive tight binding Ki fit
Procedure: Using a Biomek FX from Beckman Coulter, 1.5 μL of each of ten 2.5-fold serial dilutions of a compound of the invention in 100% DMSO was added to an individual well (hereafter, “test well”) in a 96 well polystyrene plate [Corning, Costar Item No. 3697]. One test well also contained 1.5 μL of DMSO with no compound. […] Using a Titertek Multidrop, 50 μL of Reaction Mix [100 mM HEPES pH 7.5, 50 mM NaCl, 10 mM DTT, 0.2 mg/mL BSA, 60 μM phosphatidylinositol(4,5)bisphosphate diC16 (PI(4,5)P2; Avanti Polar Lipids, Cat. No. 840046P) and PI3K isoform of interest (see Table 3 for isoform concentrations)] was added to each well. To initiate the reaction, 50 μL of ATP Mix [20 mM MgCl2, 6 μM ATP (100 μCi/μmmole ^33P-ATP)] was added each well, followed by incubating the wells for 30 min. at 25° C. Final concentrations in each well were 50 mM HEPES 7.5, 10 mM MgCl2, 25 mM NaCl, 5 mM DTT, 0.1 mg/mL BSA, 30 μM PI(4,5)P2, 3 μM ATP, and the PI3K isoform of interest (see Table 3). Final compound concentrations in each well ranged from 10 μM to 1 nM. [table] After incubation, the reactions in each well were quenched by addition of 50 μL of stop solution [30% TCA/Water, 10 mM ATP]. Each quenched reaction mixture was then transferred to a 96 well glass fiber filter plate [Corning, Costar Item No. 3511]. The plate was vacuum-filtered and washed three times with 150 μL of 5% TCA/water in a modified Bio-Tek Instruments ELX-405 Auto Plate Washer. 50 μL of scintillation fluid was added to each well and the plate read on a Perkin-Elmer TopCount™ NXT liquid scintillation counter to obtain ^33P-counts representing inhibition values. The value for the background well was subtracted from the value obtained for each test well and the data were fit to the competitive tight binding Ki equation described by Morrison and Stone, Comments Mol. Cell. Biophys. 2: 347-368, 1985.

Chain of PI3K-gamma (P48736 whole entry, species assumed): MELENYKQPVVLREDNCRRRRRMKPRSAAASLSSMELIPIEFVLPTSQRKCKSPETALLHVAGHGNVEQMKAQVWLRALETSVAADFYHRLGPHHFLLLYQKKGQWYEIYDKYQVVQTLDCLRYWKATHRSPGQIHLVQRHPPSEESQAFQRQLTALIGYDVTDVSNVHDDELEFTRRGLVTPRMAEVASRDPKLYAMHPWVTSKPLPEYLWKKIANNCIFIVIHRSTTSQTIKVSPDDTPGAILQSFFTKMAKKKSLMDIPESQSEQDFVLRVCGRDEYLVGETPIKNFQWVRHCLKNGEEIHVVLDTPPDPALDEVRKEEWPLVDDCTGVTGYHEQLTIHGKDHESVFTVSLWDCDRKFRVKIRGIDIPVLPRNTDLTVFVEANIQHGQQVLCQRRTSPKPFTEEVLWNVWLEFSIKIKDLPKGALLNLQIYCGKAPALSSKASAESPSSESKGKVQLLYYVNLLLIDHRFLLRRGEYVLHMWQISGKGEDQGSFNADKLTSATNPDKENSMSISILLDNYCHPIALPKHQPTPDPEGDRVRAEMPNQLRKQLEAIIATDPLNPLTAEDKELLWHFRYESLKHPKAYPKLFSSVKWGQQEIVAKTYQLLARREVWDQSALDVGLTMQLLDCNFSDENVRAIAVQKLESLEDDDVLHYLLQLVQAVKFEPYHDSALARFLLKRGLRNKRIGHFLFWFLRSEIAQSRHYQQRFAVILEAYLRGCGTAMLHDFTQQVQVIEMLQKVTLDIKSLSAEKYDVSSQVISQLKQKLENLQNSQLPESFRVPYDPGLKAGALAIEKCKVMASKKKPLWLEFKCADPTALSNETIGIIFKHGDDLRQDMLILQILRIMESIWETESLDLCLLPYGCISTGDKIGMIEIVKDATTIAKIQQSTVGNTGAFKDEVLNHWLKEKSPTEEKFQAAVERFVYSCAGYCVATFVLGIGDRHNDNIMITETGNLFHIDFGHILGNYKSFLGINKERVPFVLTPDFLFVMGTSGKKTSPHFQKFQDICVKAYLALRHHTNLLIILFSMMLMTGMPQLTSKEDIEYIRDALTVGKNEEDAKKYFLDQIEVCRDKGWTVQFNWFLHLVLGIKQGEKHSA

Ki, < 100 nM:
Cn1nc(NC(=O)NCCOCC2CC2)cc1C#Cc1cccnc1Cl [Compound 8]
COc1cc(C#Cc2cc(NC(=O)NC[C@@H](C)OCC3CC3)nn2C)cnc1OC [Compound 11]
Cn1nc(NC(=O)NCCc2cn(CC(F)F)cn2)cc1C#Cc1cccnc1 [Compound 3]
Cn1nc(NC(=O)NCCOCC2CC2)cc1C#Cc1ccc(N)nc1 [Compound 7]
COc1cc(C#Cc2cc(NC(=O)NC[C@H](C)OCC3CC3)nn2C)cnc1OC [Compound 14]
Cn1nc(NC(=O)NCCOCC2CC2)cc1C#Cc1ccc2nccnc2c1 [Compound 9]
COc1cncc(C#Cc2cc(NC(=O)NCCOCC3CC3)nn2C)c1 [Compound 6]
C[C@@H](CNC(=O)Nc1cc(C#Cc2ccc3nccnc3c2)n(C)n1)OCC1CC1 [Compound 12]
